# Test results published in patent publication US4442044A, “Process for preparing monoesters and diesters of N-alkyl substituted amino methyl phosphonic acid” (priority 1983, dated 1984).
# What was measured:
# Experiment in all cases: pre-emergent herbicidal activity, soil incorporation
# Assay type in all cases: in vivo
# Conditions in all cases: Table III, 2 WAT, 11.2 kg/h
# Lambsquarters = test system: Lambsquarters
# In short: (§1)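 Seeds or propagules pressed onto compacted top soil in pans; covering soil admixed with formulation of known active-ingredient amount, then filled and leveled. Pans sub-irrigated on wet sand bench ~two weeks under ordinary sunlight. Emerged plants counted versus untreated control; activity index from average percent control per species.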
# Cocklebur = test system: Cocklebur
# In short: as §1
# Johnsongrass = test system: Johnsongrass
# In short: as §1
# Quackgrass = test system: Quackgrass
# In short: as §1
# Yellow Nutsedge = test system: Yellow Nutsedge
# In short: as §1
# Velvetleaf = test system: Velvetleaf
# In short: as §1
# Downy Brome = test system: Downy Brome
# In short: as §1
# Morningglory = test system: Morningglory
# In short: as §1
# Smartweed = test system: Smartweed
# In short: as §1
# Barnyardgrass = test system: Barnyardgrass
# In short: as §1
# Canada Thistle = test system: Canada Thistle
# In short: as §1
Compound,pre-emergent herbicidal activity index (Lambsquarters),pre-emergent herbicidal activity index (Cocklebur),pre-emergent herbicidal activity index (Johnsongrass),pre-emergent herbicidal activity index (Quackgrass),pre-emergent herbicidal activity index (Yellow Nutsedge),pre-emergent herbicidal activity index (Velvetleaf),pre-emergent herbicidal activity index (Downy Brome),pre-emergent herbicidal activity index (Morningglory),pre-emergent herbicidal activity index (Smartweed),pre-emergent herbicidal activity index (Barnyardgrass),pre-emergent herbicidal activity index (Canada Thistle)
"CC(C#N)OP(=O)(O)CNCC(=O)OCCCl (stereo not shown) [Example 7, glycine, N-[[(1-cyanoethoxy)hydroxyphosphinyl]methyl], 2-chloroethyl ester]",0 (1-24% control),0 (1-24% control),1 (25-49% control),0 (1-24% control),0 (1-24% control),0 (1-24% control),0 (1-24% control),0 (1-24% control),0 (1-24% control),0 (1-24% control),1 (25-49% control)
"CC(C#N)OP(=O)(O)CNCC(=O)OCc1ccccc1 (stereo not shown) [Example 10, glycine, N-[[(1-cyanoethoxy)hydroxyphosphinyl]methyl]-,phenylmethyl ester]",0 (1-24% control),0 (1-24% control),2 (50-74% control),0 (1-24% control),0 (1-24% control),0 (1-24% control),0 (1-24% control),0 (1-24% control),0 (1-24% control),0 (1-24% control),3 (75-100% control)
